# Legend:
# [1] = target: T1, Nitric oxide synthase 3 (Homo sapiens, UniProt P29474); assay: Inhibition of human eNOS expressed in HEK293 cells assessed as NO production by 2,3-diaminonapthalene-based fluorescence assay; type: cell-based
# T1 sequence (P29474 whole entry): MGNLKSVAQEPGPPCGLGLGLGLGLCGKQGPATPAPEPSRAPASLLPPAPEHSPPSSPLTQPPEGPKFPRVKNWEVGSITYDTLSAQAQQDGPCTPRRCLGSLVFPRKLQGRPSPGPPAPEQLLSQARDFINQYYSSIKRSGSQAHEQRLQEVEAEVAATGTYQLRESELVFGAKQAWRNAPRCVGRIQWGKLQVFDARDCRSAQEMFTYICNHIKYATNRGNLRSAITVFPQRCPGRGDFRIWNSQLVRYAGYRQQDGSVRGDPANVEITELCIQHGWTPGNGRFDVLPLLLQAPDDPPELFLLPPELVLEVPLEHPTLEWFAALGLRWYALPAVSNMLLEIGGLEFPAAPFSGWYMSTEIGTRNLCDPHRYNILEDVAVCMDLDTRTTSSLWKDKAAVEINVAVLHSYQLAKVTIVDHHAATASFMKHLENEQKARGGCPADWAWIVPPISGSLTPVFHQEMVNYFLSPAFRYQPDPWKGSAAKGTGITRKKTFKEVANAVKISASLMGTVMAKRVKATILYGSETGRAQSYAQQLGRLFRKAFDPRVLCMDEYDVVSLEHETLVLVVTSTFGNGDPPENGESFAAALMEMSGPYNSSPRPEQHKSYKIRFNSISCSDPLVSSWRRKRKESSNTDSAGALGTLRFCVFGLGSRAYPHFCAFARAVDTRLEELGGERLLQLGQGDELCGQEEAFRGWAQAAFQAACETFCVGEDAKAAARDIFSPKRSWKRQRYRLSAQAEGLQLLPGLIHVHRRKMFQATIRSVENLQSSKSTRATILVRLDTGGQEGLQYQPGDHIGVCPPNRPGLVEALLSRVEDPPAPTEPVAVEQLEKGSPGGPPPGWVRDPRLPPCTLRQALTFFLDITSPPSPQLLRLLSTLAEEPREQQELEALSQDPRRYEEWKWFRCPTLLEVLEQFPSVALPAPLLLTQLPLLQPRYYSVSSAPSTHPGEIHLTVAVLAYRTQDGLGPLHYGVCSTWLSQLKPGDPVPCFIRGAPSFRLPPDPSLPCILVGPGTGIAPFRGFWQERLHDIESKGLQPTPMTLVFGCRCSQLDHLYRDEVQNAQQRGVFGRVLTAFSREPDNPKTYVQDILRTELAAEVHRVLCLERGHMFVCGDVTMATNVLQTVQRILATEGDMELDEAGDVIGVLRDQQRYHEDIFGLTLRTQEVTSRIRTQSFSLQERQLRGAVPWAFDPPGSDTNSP
# [2] = Half life in mouse liver microsomes; type: ADME, Microsome
# [3] = target: Nitric oxide synthase, inducible (Homo sapiens, UniProt P35228); assay: Inhibition of human iNOS expressed in HEK293 cells assessed as NO production by 2,3-diaminonapthalene-based fluorescence assay; type: cell-based
# Nitric oxide synthase, inducible (Homo sapiens, UniProt P35228), sequence (P35228 whole entry): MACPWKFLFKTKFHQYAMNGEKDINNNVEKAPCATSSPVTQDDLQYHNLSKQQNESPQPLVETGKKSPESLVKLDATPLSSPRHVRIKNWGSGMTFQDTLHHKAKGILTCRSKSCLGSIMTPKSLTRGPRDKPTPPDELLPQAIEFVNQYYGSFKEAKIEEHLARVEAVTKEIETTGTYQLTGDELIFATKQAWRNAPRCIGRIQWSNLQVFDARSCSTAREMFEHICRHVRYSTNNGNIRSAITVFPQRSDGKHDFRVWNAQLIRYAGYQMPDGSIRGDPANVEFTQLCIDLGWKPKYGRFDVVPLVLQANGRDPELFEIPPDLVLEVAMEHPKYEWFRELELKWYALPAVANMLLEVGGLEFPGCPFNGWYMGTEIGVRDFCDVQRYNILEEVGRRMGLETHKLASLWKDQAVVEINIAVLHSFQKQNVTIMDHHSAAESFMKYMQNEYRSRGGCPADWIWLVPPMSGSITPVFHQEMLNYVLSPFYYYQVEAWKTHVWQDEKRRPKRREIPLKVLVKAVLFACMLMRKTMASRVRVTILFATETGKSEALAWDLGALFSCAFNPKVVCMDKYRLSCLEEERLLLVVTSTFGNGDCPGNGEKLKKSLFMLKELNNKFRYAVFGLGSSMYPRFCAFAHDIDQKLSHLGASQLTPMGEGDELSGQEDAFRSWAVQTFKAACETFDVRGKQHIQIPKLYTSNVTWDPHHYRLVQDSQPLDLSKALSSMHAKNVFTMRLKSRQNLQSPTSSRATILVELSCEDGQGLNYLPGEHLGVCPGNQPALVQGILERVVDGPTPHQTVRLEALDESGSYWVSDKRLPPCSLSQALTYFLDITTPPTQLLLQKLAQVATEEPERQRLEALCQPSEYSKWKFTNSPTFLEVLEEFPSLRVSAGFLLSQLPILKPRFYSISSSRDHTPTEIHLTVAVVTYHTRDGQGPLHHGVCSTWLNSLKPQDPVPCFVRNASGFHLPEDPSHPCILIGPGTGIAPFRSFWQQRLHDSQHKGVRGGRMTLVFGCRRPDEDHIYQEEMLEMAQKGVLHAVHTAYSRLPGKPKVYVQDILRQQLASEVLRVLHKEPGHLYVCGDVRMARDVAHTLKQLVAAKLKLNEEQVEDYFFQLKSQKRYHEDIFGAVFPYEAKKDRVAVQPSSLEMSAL
# [4] = organism: Homo sapiens; assay: Selectivity ratio of IC50 for human eNOS to IC50 for human iNOS
# [5] = target: Nitric oxide synthase 1 (Homo sapiens, UniProt P29475); assay: Inhibition of human nNOS expressed in HEK293 cells assessed as NO production by 2,3-diaminonapthalene-based fluorescence assay; type: cell-based
# Nitric oxide synthase 1, sequence (P29475 whole entry): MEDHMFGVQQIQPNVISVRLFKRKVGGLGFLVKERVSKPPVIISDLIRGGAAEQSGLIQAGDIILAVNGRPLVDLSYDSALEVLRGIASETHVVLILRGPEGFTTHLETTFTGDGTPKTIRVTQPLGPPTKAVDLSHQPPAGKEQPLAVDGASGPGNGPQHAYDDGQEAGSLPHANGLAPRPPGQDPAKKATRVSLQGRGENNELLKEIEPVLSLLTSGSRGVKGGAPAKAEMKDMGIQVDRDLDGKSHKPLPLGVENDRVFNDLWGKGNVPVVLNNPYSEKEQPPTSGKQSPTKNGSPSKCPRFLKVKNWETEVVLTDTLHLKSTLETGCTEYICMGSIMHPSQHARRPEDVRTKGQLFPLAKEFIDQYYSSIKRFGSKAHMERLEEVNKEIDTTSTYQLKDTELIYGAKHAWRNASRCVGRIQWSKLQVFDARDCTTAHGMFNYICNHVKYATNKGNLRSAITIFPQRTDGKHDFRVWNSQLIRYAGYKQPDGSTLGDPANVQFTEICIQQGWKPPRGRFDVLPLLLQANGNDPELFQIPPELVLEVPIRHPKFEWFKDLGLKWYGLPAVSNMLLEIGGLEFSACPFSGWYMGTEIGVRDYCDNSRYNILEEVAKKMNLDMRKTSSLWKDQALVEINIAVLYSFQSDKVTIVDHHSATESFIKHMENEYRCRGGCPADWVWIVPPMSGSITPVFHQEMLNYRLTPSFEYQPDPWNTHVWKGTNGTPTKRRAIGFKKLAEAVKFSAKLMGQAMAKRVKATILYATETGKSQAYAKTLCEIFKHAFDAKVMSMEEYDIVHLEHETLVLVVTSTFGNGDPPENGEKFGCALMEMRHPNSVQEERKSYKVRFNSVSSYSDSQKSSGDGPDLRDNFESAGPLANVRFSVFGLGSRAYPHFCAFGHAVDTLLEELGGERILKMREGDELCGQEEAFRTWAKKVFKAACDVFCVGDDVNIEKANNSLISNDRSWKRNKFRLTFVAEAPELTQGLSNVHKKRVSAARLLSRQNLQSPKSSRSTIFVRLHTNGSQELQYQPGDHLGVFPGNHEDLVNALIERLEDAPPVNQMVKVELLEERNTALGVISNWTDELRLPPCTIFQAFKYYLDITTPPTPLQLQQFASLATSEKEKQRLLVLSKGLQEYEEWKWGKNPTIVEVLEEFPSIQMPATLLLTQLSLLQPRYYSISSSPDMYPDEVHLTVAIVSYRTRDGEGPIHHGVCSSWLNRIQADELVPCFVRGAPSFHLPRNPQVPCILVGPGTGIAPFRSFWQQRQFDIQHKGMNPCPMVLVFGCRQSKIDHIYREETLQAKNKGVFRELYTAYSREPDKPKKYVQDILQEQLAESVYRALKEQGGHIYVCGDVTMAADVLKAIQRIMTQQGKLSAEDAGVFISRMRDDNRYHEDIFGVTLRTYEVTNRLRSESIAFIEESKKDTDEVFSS
# [6] = target: Nitric oxide sythases; iNOS & nNOS (Homo sapiens) (UniProt P29475+P35228); assay: Selectivity ratio of IC50 for human nNOS to IC50 for human iNOS
# Nitric oxide sythases; iNOS & nNOS (Homo sapiens), sequence (P29475 whole entry, looked up): as the sequence (P29475 whole entry) above
# Nitric oxide sythases; iNOS & nNOS (Homo sapiens), sequence (P35228 whole entry, looked up): as the sequence (P35228 whole entry) above
# [7] = target: T2, Nitric oxide synthase 3 (Homo sapiens) (UniProt P29474); assay: Inhibition of human eNOS expressed in HEK293 cells assessed as NO production at 30 uM by 2,3-diaminonapthalene-based fluorescence assay; type: cell-based
# T2 sequence (whole entry): T1 sequence (P29474 whole entry)
# [8] = Volume of distribution at steady state in mouse; type: ADME, organism-based; settings: in vivo, read-out: Vdss
# [9] = AUC in mouse at 10 mg/kg, po; type: ADME, organism-based; set-up: dose 10 mg/kg, route oral; settings: plasma
# [10] = target: T3, Nitric oxide synthase, inducible (Mus musculus, UniProt P29477); assay: Inhibition of mouse iNOS
# T3 sequence (P29477 whole entry): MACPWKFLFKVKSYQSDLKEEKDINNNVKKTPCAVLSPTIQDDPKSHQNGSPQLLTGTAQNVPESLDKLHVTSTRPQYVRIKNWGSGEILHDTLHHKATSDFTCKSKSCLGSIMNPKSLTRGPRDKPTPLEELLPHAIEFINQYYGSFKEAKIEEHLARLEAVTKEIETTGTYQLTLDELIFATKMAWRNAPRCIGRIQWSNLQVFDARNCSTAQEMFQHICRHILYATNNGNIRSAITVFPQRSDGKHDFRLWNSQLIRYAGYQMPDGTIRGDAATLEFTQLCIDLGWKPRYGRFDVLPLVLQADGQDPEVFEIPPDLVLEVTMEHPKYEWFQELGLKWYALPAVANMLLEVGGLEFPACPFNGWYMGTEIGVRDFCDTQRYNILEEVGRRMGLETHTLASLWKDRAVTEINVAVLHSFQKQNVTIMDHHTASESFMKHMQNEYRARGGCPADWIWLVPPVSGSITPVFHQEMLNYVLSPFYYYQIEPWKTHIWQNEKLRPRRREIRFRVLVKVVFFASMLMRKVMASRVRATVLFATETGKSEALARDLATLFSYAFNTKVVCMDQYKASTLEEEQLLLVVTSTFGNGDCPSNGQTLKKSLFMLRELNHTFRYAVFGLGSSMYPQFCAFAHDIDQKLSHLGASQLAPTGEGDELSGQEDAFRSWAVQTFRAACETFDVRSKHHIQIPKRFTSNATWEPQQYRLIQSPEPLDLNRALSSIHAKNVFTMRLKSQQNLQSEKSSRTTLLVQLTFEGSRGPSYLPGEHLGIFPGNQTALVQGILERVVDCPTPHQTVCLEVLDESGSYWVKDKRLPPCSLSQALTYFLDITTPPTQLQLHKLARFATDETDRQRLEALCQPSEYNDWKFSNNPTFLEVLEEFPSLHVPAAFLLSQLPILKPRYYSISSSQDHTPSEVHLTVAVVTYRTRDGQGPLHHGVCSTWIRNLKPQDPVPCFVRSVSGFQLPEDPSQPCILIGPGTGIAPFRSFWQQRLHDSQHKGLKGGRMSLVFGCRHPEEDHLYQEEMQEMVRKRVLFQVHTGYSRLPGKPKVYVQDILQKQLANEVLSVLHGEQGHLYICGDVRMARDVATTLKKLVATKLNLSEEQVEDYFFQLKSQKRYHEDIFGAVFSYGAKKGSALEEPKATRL
# [11] = system: Mus musculus; assay: Antiinflammatory activity in po dosed mouse assessed as reduction in LPS-induced nitatre level in plasma; type: functional
# [12] = Plasma clearance in mouse; type: ADME, organism-based
# [13] = Half life in mouse; type: ADME, organism-based; settings: in vivo
# [14] = Oral bioavailability in mouse at 10 mg/kg; type: ADME, organism-based; settings: in vivo
# [15] = system: Mus musculus; assay: Antiinflammatory activity in mouse assessed as reduction in LPS-induced nitatre level in plasma at 30 mg/kg, po; type: functional; set-up: scale not given: the % may be the effect or the level left
# [16] = Cmax in mouse at 10 mg/kg, po; type: ADME, organism-based; set-up: dose 10 mg/kg, route oral; settings: in vivo
SMILES,IC50 [1] [µM],IC50 [3] [nM],Ratio IC50 [4],IC50 [5] [nM],Ratio IC50 [6],also measured
Cn1ncc2c(N(Cc3cc(=O)[nH]c4c(F)c(F)ccc34)c3cccc(Cl)c3)ncnc21,8.3,11,730,62,,half-life [2]: < 30 min
O=c1cc(CN(Cc2ccccn2)c2cnccn2)c2ccc(F)c(F)c2[nH]1,11,78,140,440,6,half-life [2]: < 20 min
COc1cc(N(Cc2cc(=O)[nH]c3c(F)c(F)ccc23)c2cccc(Cl)c2)ncn1,> 30,61,> 500,130,2,inhibition [7]: < 50%
O=c1cc(CN(c2cccc(Cl)c2)c2ccncn2)c2ccc(F)c(F)c2[nH]1,13,14,1000,150,11,
O=c1cc(CN(c2cncnc2)c2cccc(Cl)c2)c2ccc(F)c(F)c2[nH]1,79,210,375,1600,8,
CN(C)c1cc(N(Cc2cc(=O)[nH]c3c(F)c(F)ccc23)c2cccc(Cl)c2)ncn1,> 30,28,> 1000,500,20,inhibition [7]: < 50%
O=c1cc(CN(c2cccnc2)c2cccc(Cl)c2)c2ccc(F)c(F)c2[nH]1,14,77,180,370,5,
O=c1cc(CN(Cc2ccccc2F)c2cnccn2)c2ccc(F)c(F)c2[nH]1,11,12,900,64,5,
O=c1cc(Cn2c(C3CCC3)nc3nccnc32)c2ccc(F)c(F)c2[nH]1,,91,,,,Vd [8]: 0.4 L/kg; AUC [9]: 25000 ng·h/mL; IC50 [10]: 500 nM; ED50 [11]: 1 mg/kg
O=c1cc(CN(Cc2ccccc2)c2cnccn2)c2ccc(F)c(F)c2[nH]1,6.4,13,500,100,8,
Cc1ccccc1CN(Cc1cc(=O)[nH]c2c(F)c(F)ccc12)c1cnccn1,13,10,1300,46,5,
O=c1cc(CN(Cc2cccc(Cl)c2)c2cnccn2)c2ccc(F)c(F)c2[nH]1,8.3,220,40,330,2,half-life [2]: < 20 min
O=c1cc(CN(c2cccc(Cl)c2)c2cnccn2)c2ccc(F)c(F)c2[nH]1,1.5,5,300,12,2,clearance [12]: 34 mL/min/kg; half-life [13]: 126 min; Vd [8]: 1.7 L/kg; bioavailability [14]: 3%; Activity [15]: 80%; AUC [9]: 120 ng·h/mL; Cmax [16]: 45 ng/mL; IC50 [10]: 5 nM; ED50 [11]: 3.6 mg/kg
[O-][n+]1cc(CN(c2cccc(Cl)c2)c2ncccn2)c2ccc(F)c(F)c2c1,,17,> 1000,,9,
O=c1cc(CN(c2ccncc2)c2cccc(Cl)c2)c2ccc(F)c(F)c2[nH]1,23,130,170,240,2,
O=c1cc(CN(c2cccc(Cl)c2)c2ncccn2)c2ccc(F)c(F)c2[nH]1,5.5,13,425,69,5,
Cc1cc(N(Cc2cc(=O)[nH]c3c(F)c(F)ccc23)c2cccc(Cl)c2)ncn1,> 30,53,> 500,160,3,inhibition [7]: < 50%
O=c1cc(CN(c2ccccc2)c2cccc(Cl)c2)c2ccc(F)c(F)c2[nH]1,> 30,1500,> 20,,,inhibition [7]: < 50%
O=c1cc(CN(Cc2ccc(Cl)cc2)c2cnccn2)c2ccc(F)c(F)c2[nH]1,7.1,77,90,120,2,half-life [2]: < 20 min
Cc1nccc(N(Cc2cc(=O)[nH]c3c(F)c(F)ccc23)c2cccc(Cl)c2)n1,7.5,33,230,213,7,half-life [2]: 90 min; Activity [15]: 55%
O=c1cc(CN(Cc2ccccc2Cl)c2cnccn2)c2ccc(F)c(F)c2[nH]1,12,12,1000,60,5,
Fc1ccc2c(CN(c3cccc(Cl)c3)c3ncccn3)cncc2c1F,,200,> 1000,,,
Cc1cccnc1N(Cc1cc(=O)[nH]c2c(F)c(F)ccc12)c1cccc(Cl)c1,> 30,350,> 85,,,inhibition [7]: < 50%
CN(C)c1nccc(N(Cc2cc(=O)[nH]c3c(F)c(F)ccc23)c2cccc(Cl)c2)n1,> 30,1300,> 20,,,inhibition [7]: < 50%
O=c1cc(CN(c2cccc(Cl)c2)c2ccccn2)c2ccc(F)c(F)c2[nH]1,> 30,31,> 1000,170,5,inhibition [7]: < 50%
O=c1cc(CN(c2cccc(Cl)c2)c2cccnn2)c2ccc(F)c(F)c2[nH]1,21,43,500,360,8,
